What was measured:
[1] = test system: U937 cells / activated human umbilical vein endothelial cells (HUVEC); experiment: adhesion of U937 cells to TNF-activated HUVEC; assay type: cell-based; conditions: human TNF 20 ng/ml, 12 hours
Experimental: Another assay measures the effects of drug to inhibit adhesion of U937 cells to TNF-activated HUVEC cells In this experiment, HUVEC cells are induced with human TNF-α (20 ng/ml) and drug at varying concentrations for 14-16 hrs. U937 cells (a human monocyte cell line) are incubated and labeled with BCECF (10 μg/ml), a fluorescent dye. The U937 cell preparation (2.5×10^4 cells per well) is layered on top of the activated HUVEC cells. The cells are reverse spun to remove partially adhering and nonadhering U937 cell. The adherent U937 cells are measured by fluorescence on a fluorescent plate reader.
1521 to inhibit adhesion of U937 cells to activated human umbilical vein endothelial cells (HUVEC). HUVEC cells were activated with 20 ng/ml of human TNF for 12 hours. Compound no. 1521 was added to samples one hour prior to adding TNF. U937 cells preloaded with a fluorescent dye were added to the HUVEC cells and adhesion measured after washing. Compound no. […] Background adhesion of U937 cells to non-activated HUVEC is shown as a dashed line.

[2] = test system: PBMC (peripheral blood mononuclear cells); experiment: two-way mixed lymphocyte reaction; assay type: cell-based, human; conditions: FIG. 1; 6 days culture
From the text: Various in vitro assays can be used to measure effects of the inventive compounds to module immune activity and have antitumor activity using a variety of cellular types. For example, a mixed lymphocyte reaction (MLR) provides a valuable screening tool to determine biological activity of each inventive compound. In the MLR, PBMCs (peripheral blood mononuclear cells) are obtained by drawing whole blood from healthy volunteers in a heparinized container and diluted with an equal volume of hanks balanced salt solution (HBSS). This mixture is layered on a sucrose density gradient, such as a Ficoll-Hypaque® gradient (specific gravity 1.08), and centrifuged at 1000×g for 25 minutes at room temperature or cooler. PBMC are obtained from a band at a plasma-Ficoll interface, separated and washed at least twice in a saline solution, such as HBSS. Contaminating red cells are lysed, such as by ACK lysis for 10 min at 37° C., and the PBMCs are washed twice in HBSS. The pellet of purified PBMCs is resuspended in complete medium, such as RPMI 1640 plus 20% human inactivated serum. Proliferative response of PBMC to allogeneic stimulation is determined in a two-way MLR performed in a 96-well microtiter plate. Briefly, approximately 10^5 test purified PBMC cells in 200 μl complete medium are co-cultured with approximately 10^5 autologous (control culture) or allogeneic (stimulated culture) PBMC cells, wherein the allogeneic cells are from HLA disparate individuals. Varying doses of compounds (drug) are added at the time of addition of cells to the microtiter plate. The cultures are incubated for 6 days at 37° C. in a 5% CO2 atmosphere. At the conclusion of the incubation tritiated thymidine is added (for example, 1 μCi/well of 40 to 60 Ci/mmole) and proliferation determined by liquid scintillation. counting.
Example 10 illustrates a mixed lymphocyte reaction of inventive compounds nos. 1521 and 1522 (see above for chemical name and structure). […] Both compounds nos. […]

[3] = test system: murine peritoneal macrophages; experiment: TNF-α release from LPS-stimulated murine peritoneal macrophages; assay type: cell-based; conditions: 0.25 mM, LPS 10 μg/ml
Experimental: (§1) This example illustrates the ability of inventive compound no. 1521 to inhibit TNF-α release from murine peritoneal macrophages when stimulated with LPS. This assay is a model for septic shock. Macrophages (10^5) were treated with LPS at 10 μg/ml in RPMI media containing 10% fetal calf serum. Supernatants were assayed for TNF by an ELISA technique at various times following LPS stimulation. The cells were treated one hour prior to LPS stimulation with 0.25 mM of inventive compound no. 1521.

P388D1 cells = experiment: TNF-α release from LPS-stimulated P388D1 cells; assay type: cell-based, murine; conditions: 0.25 mM, LPS 10 μg/ml
Experimental: as §1, with “of” for “of inventive”, “from P388D1 cells (a” for “from”, “monocyte/macrophage line)” for “peritoneal macrophages”, “P388D1 cells” for “Macrophages”, “mM” for “mM of inventive”

[4] = test system: MCF-7, Hurdlich, RAS and NIH-3T3 cells; experiment: cytotoxicity on several cell lines (BCECF viability); assay type: cell-based; conditions: 24 hours; FIG. 13
Experimental: Each inventive compound is investigated for cytotoxicity to determine appropriate doses for biological activity assays and to prevent cytotoxic reactions in in vitro assays when characterizing activity. Cells (e.g., NIH-3T3, Ras transformed 3T3 cells, malignant melanoma LD2 cells, etc.) are added to microtiter plates and drug is added about two days after plating. Cell viability is determined using a fluorescent viability slain (e.g., 2',7'-bis-(2-carboroxyethyl)-5-(and -6)-carboxyfluorescein acetoxymethyl ester, BCECF excitation 488 nm and emission 525 nm) 24, 48 or 72 hours after addition of the drug.
1522 is not cytotoxic to several cell lines. The cells lines used were MCF-7 a human breast cancer-derived line, Hurdlich cells a human stromal derived line, RAS a codon-12 transformed malignant murine line, and NIH-3T3 a non-Ras transformed parent line of RAS. The cells were treated with various concentrations of drug, and 24 hours later, stained for viability using BCECF and analyzed for fluorescent die uptake (indicating viable cells) using a fluorescence plate reader.

SMILES	adhesion of U937 cells to activated HUVEC [1]	proliferative response of PBMC to allogeneic stimulation (MLR) [2]	inhibition of TNF-α release [3]	inhibition of TNF-α release (P388D1 cells)	cytotoxicity (viability by BCECF) [4]
CC(CCCCn1c(=O)c2c(ncn2C)n(C)c1=O)=NO [Compound no. 1521]	reduced adhesion	showed activity in this immune modulating activity assay procedure	inhibited TNF release	inhibited TNF release	–
CON=C(C)CCCCn1c(=O)c2c(ncn2C)n(C)c1=O [Compound no. 1522]	–	showed activity in this immune modulating activity assay procedure	–	–	non-toxic at therapeutic concentrations

From patent US5770595A, “Oxime substituted therapeutic compounds” (Cell Therapeutics, Inc., priority 1994, dated 1998)
